Test results taken from PubChem BioAssay (NCI).
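Dose response: 5 concentrations. Exposure: 48 h. Format: 96-well plates. Endpoint: linear interpolation; highest concentration if not reached. Here, GI50 denotes the concentration required for 50% inhibition of growth. TGI: total growth inhibition.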

What was measured:
Assay in all cases: NCI-60 cell line screen, 48 h
[1] = tested on: NCI-H226 lung
[2] = tested on: NCI-H23 lung
[3] = tested on: NCI-H460 lung
[4] = tested on: NCI-H522 lung
[5] = tested on: NCI/ADR-RES ovarian
[6] = tested on: OVCAR-3 ovarian
[7] = tested on: OVCAR-4 ovarian
[8] = tested on: OVCAR-5 ovarian
[9] = tested on: OVCAR-8 ovarian
[10] = tested on: PC-3 prostate
[11] = tested on: RPMI-8226 leukemia
[12] = tested on: RXF 393 renal
[13] = tested on: SF-268 CNS
[14] = tested on: SF-295 CNS
[15] = tested on: SF-539 CNS
[16] = tested on: SK-MEL-2 melanoma
[17] = tested on: SK-MEL-28 melanoma
[18] = tested on: SK-MEL-5 melanoma
[19] = tested on: SK-OV-3 ovarian
[20] = tested on: SN12C renal
[21] = tested on: SNB-19 CNS
[22] = tested on: SNB-75 CNS
[23] = tested on: SR leukemia
[24] = tested on: SW-620 colon
[25] = tested on: T-47D breast
[26] = tested on: TK-10 renal
[27] = tested on: U251 CNS
[28] = tested on: UACC-257 melanoma
[29] = tested on: UACC-62 melanoma
[30] = tested on: UO-31 renal

CCOc1ccccc1[C@H]1C(C(=O)c2ccc(Cl)cc2)C2(N[C@@H]1c1ccccc1)C(=O)Nc1ccc(Br)cc12 (some centres undefined)
TGI [1]: 10.6 µM | GI50 [2]: 5.43 µM | TGI [2]: 13.8 µM | GI50 [3]: 5.11 µM | TGI [3]: 10.8 µM | GI50 [4]: 4.41 µM | TGI [4]: 13.4 µM | GI50 [5]: 5.25 µM | TGI [5]: 13 µM | GI50 [6]: 5.07 µM | TGI [6]: 12.8 µM | GI50 [7]: 8.09 µM | TGI [7]: > 34.5 µM | GI50 [8]: 7 µM | TGI [8]: 24.5 µM | GI50 [9]: 6.06 µM | TGI [9]: 19.3 µM | GI50 [10]: 3.6 µM | TGI [10]: > 34.5 µM | GI50 [11]: 6.69 µM | TGI [11]: > 34.5 µM | GI50 [12]: 3.8 µM | TGI [12]: 9.29 µM | GI50 [13]: 6.2 µM | TGI [13]: 24.4 µM | GI50 [14]: 5.79 µM | TGI [14]: 21.6 µM | GI50 [15]: 7.93 µM | TGI [15]: 20.2 µM | GI50 [16]: 5.59 µM | TGI [16]: 12.4 µM | GI50 [17]: 6.28 µM | TGI [17]: 15.7 µM | GI50 [18]: 5.41 µM | TGI [18]: 10.8 µM | GI50 [19]: 9.66 µM | TGI [19]: > 34.5 µM | GI50 [20]: 4.46 µM | TGI [20]: 9.03 µM | GI50 [21]: 9.14 µM | TGI [21]: > 34.5 µM | GI50 [22]: 4.2 µM | TGI [22]: 25 µM | GI50 [23]: 5.17 µM | TGI [23]: 16.3 µM | GI50 [24]: 6.55 µM | TGI [24]: 19 µM | GI50 [25]: 4.05 µM | TGI [25]: > 34.5 µM | GI50 [26]: 8.22 µM | TGI [26]: 28.5 µM | GI50 [27]: 5.72 µM | TGI [27]: 13.9 µM | GI50 [28]: 5.86 µM | TGI [28]: 17.6 µM | GI50 [29]: 3.45 µM | TGI [29]: 7.98 µM | GI50 [30]: 4.99 µM | TGI [30]: 20.8 µM
